Assay results published in patent US8410107B2, “N-pyridin-3-yl or N-pyrazin-2-yl carboxamides” (Hoffmann-La Roche Inc., priority 2010, dated 2013).

How the values were obtained:
[1] = test system: ABCA1 protein; assay: Detection of upregulation of ABCA1 protein in cells (ApoA-I binding, high content image analysis); format: cell-based; details: THP-1 macrophage cells; for EC50: ABCA1 protein increasing efficacy; for % increase of ABCA1 at 3 μM: 24 hrs with compound
Method: The ability of compounds of the invention to increase the level of ABCA1 protein is determined in replicate cultures of THP-1 macrophage cells in 96-well microplates. Cells are plated at an initial density of 100,000 cells/well in 100 μl medium and differentiated to adherent macrophages with the addition of PMA (100 nM) for 68 hrs in 10% fetal bovine serum, 3 μl/L of b-mercaptoethanol, RPMI-1640 medium. Then, cells are incubated with RPMI-1640 medium containing 1% FCS, 25 μg/ml acetylated LDL, for 24 hours at 37°. Following incubation with acetylated LDL, cells are washed twice with 50 μl PBS and incubated with 100 μl of RPMI-1640 medium containing the compound of interest solubilized in DMSO for an additional 24 hrs. The final DMSO concentration in presence of cells is maintained at 0.5%. ApoA-I binding assay using High Content Image Analysis is initiated by replacing with fresh medium, RPMI without Phenol Red, 0.2% BSA containing AlexaFluor®647 labeled ApoA-I for 2 h/37° C./5% CO2. Then, cells are fixed with 4% Formaldehyde inPBS (15 min, RT). Following Nuclei are stained with Hoechst solution (3 μM PBS) and Cytoplasm with Cell Mask Blue (2 μg/ml PBS), 15 min, RT. Finally the stained cells are fixed with a second round of formaldehyde treatment. Fixed stained cells are washed and kept in PBS at 4° C. and can be read immediately until one month after preparation.
The Alexa Fluor 647-labeled Apolipoprotein A-I (20 nM) was prepared as follows: Human recombinant Apolipoprotein A-I (ApoA-I) was exchanged to a buffer of 0.02 M NaHCO3 at pH 8.2 on an NAP desalting column (GE Healthcare) and brought to a concentration to 40 μM (1.13 mg/ml) by adjustment with the same buffer. The ApoA-I was fluorescently labeled by incubation with Alexa Fluor carboxylic acid succimidyl ester. (Alexa Fluor 647, Invitrogen A-20006) at a 2:1 molar ratio (Alexa to ApoA-I) for 1 h under shaking at RT. The remaining unconjugated label was removed by buffer exchange to 0.02M NaHCO3 at pH 8.2.
Imaging and data collection were performed on an OPERA confocal microplate imaging reader using a 20× water immersion objective and UV360 or 405 laser to identify the cell nuclei and a 635 laser to identify the fluorescent ApoA-I. Eight fields of view are captured per well. Image capture and analysis was performed with the Acapella software. Background fluorescence detected in control wells without ApoA-I was subtracted.
Using XLfit3 program (ID Business Solutions Ltd. UK), the model 205 for Dose Response One Site is used to calculate the EC50 values. The compounds of the present invention increase the level of ABCA1 protein by more than 45% at a concentration of 3 μM. […] Even more preferably, the compounds of the present invention have EC50 values in a range of 0.1 μM to 3 μM.

[2] = molecular target: T1, human CB1 receptor (Homo sapiens, UniProt P21554); assay: CB1 receptor affinity ([3H]-CP-55,940 displacement, HEK cell membranes); format: binding; details: displacement of radioligand [3H]-CP-55,940
T1 construct: expressed in transfected cells; host or cells: human embryonic kidney (HEK) cells, Semliki Forest Virus system, membrane preparations
T1 sequence (P21554 whole entry): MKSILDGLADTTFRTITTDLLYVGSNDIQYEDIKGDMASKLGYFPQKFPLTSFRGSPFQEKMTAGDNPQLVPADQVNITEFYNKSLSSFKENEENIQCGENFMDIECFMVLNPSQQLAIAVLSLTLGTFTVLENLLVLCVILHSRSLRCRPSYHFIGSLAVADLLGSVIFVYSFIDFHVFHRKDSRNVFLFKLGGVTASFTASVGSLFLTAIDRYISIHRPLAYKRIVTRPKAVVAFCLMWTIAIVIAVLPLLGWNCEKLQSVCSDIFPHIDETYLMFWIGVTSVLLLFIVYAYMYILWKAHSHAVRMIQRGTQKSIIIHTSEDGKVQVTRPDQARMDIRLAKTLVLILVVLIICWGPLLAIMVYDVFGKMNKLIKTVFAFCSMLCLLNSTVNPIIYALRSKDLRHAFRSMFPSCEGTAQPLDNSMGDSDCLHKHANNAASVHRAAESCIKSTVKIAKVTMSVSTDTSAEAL
Method: (§1) The affinity of the compounds of the invention for cannabinoid receptors was determined using membrane preparations of human embryonic kidney (HEK) cells in which the human CB1 receptor is transiently transfected using a Semliki Forest Virus system in conjunction with [3H]-CP-55,940 as radioligand. After incubation of freshly prepared cell membrane preparation with the [^3H]-ligand, with or without addition of compounds of the invention, separation of bound and free ligand was performed by filtration over glass fiber filters. Radioactivity on the filter was measured by scintillation counting.
(§2) The ability of the compounds to displace the radioligand [^3H]-CP-55,940 was measured at a concentration of 10 μM and values provided as [% inhibition @ 10 μM] both for the CB1 and CB2 receptor assay, The lower % inhibition is, the lower the likelihood of side effects based on CB1 or CB2 receptor inhibition is.

[3] = molecular target: T2, human CB2 receptor (Homo sapiens, UniProt P34972); assay: CB2 receptor affinity ([3H]-CP-55,940 displacement, HEK cell membranes); format: binding; details: displacement of radioligand [3H]-CP-55,940
T2 construct: expressed in transfected cells; host or cells: human embryonic kidney (HEK) cells, Semliki Forest Virus system, membrane preparations
T2 sequence (P34972 whole entry): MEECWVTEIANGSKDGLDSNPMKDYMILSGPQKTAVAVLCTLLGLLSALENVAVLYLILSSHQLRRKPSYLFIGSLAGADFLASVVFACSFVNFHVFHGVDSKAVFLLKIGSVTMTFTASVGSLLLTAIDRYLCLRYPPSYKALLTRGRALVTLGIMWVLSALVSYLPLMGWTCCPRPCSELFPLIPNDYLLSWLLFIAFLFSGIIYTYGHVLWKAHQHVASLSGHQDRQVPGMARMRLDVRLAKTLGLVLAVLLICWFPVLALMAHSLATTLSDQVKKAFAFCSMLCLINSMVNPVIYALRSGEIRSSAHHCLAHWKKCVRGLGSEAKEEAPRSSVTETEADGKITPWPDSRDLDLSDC
Method: as §1, with “cannabinoid CB2” for “cannabinoid”, “CB2” for “CB1”, “[^3H]-CP-55,940” for “[3H]-CP-55,940”
as §2

| SMILES | EC50 [1] [nM] | inhibition at 10 µM [2] [%] | inhibition at 10 µM [3] [%] | % increase of ABCA1 at 3 μM [1] [% @ 3 μM] |
| --- | --- | --- | --- | --- |
| O=C(Nc1cnc(OCC(F)(F)F)c(-c2ccc(Cl)cc2)c1)c1ccc(O)cn1 [Example 40, 5-hydroxy-pyridine-2-carboxylic acid[5-(4-chloro-phenyl)-6-(2,2,2-trifluoro-ethoxy)-pyridin-3-yl]-amide] | 3310 | 19 | -5 |  |
| Cc1cc(C(=O)Nc2cnc(OCC(F)(F)F)c(-c3ccc(Cl)cc3)c2)ccn1 [Example 25, N-[5-(4-chloro-phenyl)-6-(2,2,2-trifluoro-ethoxy)-pyridin-3-yl]-2-methyl-4-pyridinecarboxylic acid amide] | 2650 | 25 | -1 |  |
| CC(=O)Nc1cnc(OCC(F)(F)F)c(-c2ccc(Cl)cc2)c1 [Example 5, N-[5-(4-chloro-phenyl)-6-(2,2,2-trifluoro-ethoxy)-pyridin-3-yl]-acetamide] |  | 19 | -5.4 | >45 |
| O=C(Nc1cnc(OCC(F)(F)F)c(-c2ccc(Cl)cc2)c1)[C@H]1CCCO1 (racemic) [Example 70, (RS)-N-(5-(4-chlorophenyl)-6-(2,2,2-trifluoroethoxy)pyridin-3-yl)tetrahydrofuran-2-carboxamide] |  | 49 | 15 | >45 |
| CCc1ccc(-c2cc(NC(=O)c3cccnc3)cnc2OCC(F)(F)F)cc1 [Example 47, N-(5-(4-ethylphenyl)-6-(2,2,2-trifluoroethoxy)pyridin-3-yl)nicotinamide] | 1360 | 34 | 5 |  |
| Cc1cccnc1C(=O)Nc1cnc(OCC(F)(F)F)c(-c2ccc(Cl)cc2)c1 [Example 36, 3-methyl-2-pyridinecarboxylic acid[5-(4-chloro-phenyl)-6-(2,2,2-trifluoro-ethoxy)-pyridin-3-yl]-amide] | 510 | 18 | 2 |  |
| CCc1ccc(-c2cc(NC(=O)c3cccnn3)cnc2OCC(F)(F)F)cc1 [Example 65, N-(5-(4-ethylphenyl)-6-(2,2,2-trifluoroethoxy)pyridin-3-yl)pyridazine-3-carboxamide] | 270 | 19 | 5 |  |
| Cc1ncccc1C(=O)Nc1cnc(OCC(F)(F)F)c(-c2ccc(Cl)cc2)c1 [Example 29, N-[5-(4-chloro-phenyl)-6-(2,2,2-trifluoro-ethoxy)-pyridin-3-yl]-2-methyl-3-pyridinecarboxylic acid amide] |  | 41 | 19 | >45 |
| Cc1cncc(C(=O)Nc2cnc(OC3CCC3)c(-c3ccc(Cl)cc3)c2)c1 [Example 83, N-[5-(4-Chloro-phenyl)-6-cyclobutoxy-pyridin-3-yl]-5-methyl-nicotinamide] |  | 27 | -5 | >45 |
| O=C(Nc1cnc(OCC(F)(F)F)c(-c2ccc(Cl)cc2)c1)c1ccoc1 [Example 67, N-(5-(4-chlorophenyl)-6-(2,2,2-trifluoroethoxy)pyridin-3-yl)furan-3-carboxamide] |  | 33 | 9 | >45 |
| O=C(Nc1cnc(OCC(F)(F)F)c(-c2ccc(Cl)cc2)c1)c1cccnc1 [Example 3, N-[5-(4-chloro-phenyl)-6-(2,2,2-trifluoro-ethoxy)-pyridin-3-yl]-nicotinamide] | 2280 | 29 | 8 |  |
| CN1CCOc2cc(C(=O)Nc3cnc(OCC(F)(F)F)c(-c4ccc(Cl)cc4)c3)cnc21 [Example 72, N-(5-(4-chlorophenyl)-6-(2,2,2-trifluoroethoxy)pyridin-3-yl)-4-methyl-3,4-dihydro-2H-pyrido[3,2-b][1,4]oxazine-7-carboxamide] | 780 | 25 | -7 |  |
| O=C(Nc1cnc(OCC(F)(F)F)c(-c2ccc(Cl)cc2)n1)c1cccnc1 [Example 49, N-(6-(4-chlorophenyl)-5-(2,2,2-trifluoroethoxy)pyrazin-2-yl)nicotinamide] | 300 | 39 | -3 |  |
| Cc1ocnc1C(=O)Nc1cnc(OCC(F)(F)F)c(-c2ccc(Cl)cc2)c1 [Example 37, 5-methyl-4-oxazolecarboxylic acid[5-(4-chloro-phenyl)-6-(2,2,2-trifluoro-ethoxy)-pyridin-3-yl]-amide] |  | 27 | 8 | >45 |
| Cc1nocc1C(=O)Nc1cnc(OCC(F)(F)F)c(-c2ccc(Cl)cc2)c1 [Example 14, 3-methyl-isoxazole-4-carboxylic acid[5-(4-chloro-phenyl)-6-(2,2,2-trifluoro-ethoxy)-pyridin-3-yl]-amide] |  | 38 | 10 | >45 |
| O=C(Nc1cnc(OCC(F)(F)F)c(-c2ccc(Cl)cc2)c1)c1cnccn1 [Example 12, pyrazine-2-carboxylic acid[5-(4-chloro-phenyl)-6-(2,2,2-trifluoro-ethoxy)-pyridin-3-yl]-amide] |  | 22 | 4 | >45 |
| CCCC(=O)Nc1cnc(OCC(F)(F)F)c(-c2ccc(Cl)cc2)c1 [Example 6, N-[5-(4-Chloro-phenyl)-6-(2,2,2-trifluoro-ethoxy)-pyridin-3-yl]-butyramide] |  | 47 | 11 | >45 |
| Cc1cnc(C(=O)Nc2cnc(OCC(F)(F)F)c(-c3ccc(Cl)cc3)c2)s1 [Example 26, 5-methyl-2-thiazole-carboxylic acid[5-(4-chloro-phenyl)-6-(2,2,2-trifluoro-ethoxy)-pyridin-3-yl]-amide] |  | 37 | 11 | >45 |
| O=C(Nc1cnc(OCC(F)(F)F)c(-c2ccc(Cl)cc2)c1)c1ccnc(O)c1 [Example 32, N-[5-(4-chloro-phenyl)-6-(2,2,2-trifluoro-ethoxy)-pyridin-3-yl]-1,2-dihydro-2-oxo-4-pyridinecarboxylic acid amide] | 1000 | 21 | 0.9 |  |
| O=C(Nc1cnc(OCC(F)(F)F)c(-c2ccc(Cl)cc2F)c1)c1cccnn1 [Example 64, N-(5-(4-chloro-2-fluorophenyl)-6-(2,2,2-trifluoroethoxy)pyridin-3-yl)pyridazine-3-carboxamide] | 1080 | 9 | 2 |  |
| Cc1cc(-c2cc(NC(=O)c3c(F)ccnc3F)cnc2OCC(F)(F)F)ccc1Cl [Example 59, N-(5-(4-chloro-3-methylphenyl)-6-(2,2,2-trifluoroethoxy)pyridin-3-yl)-2,4-difluoronicotinamide] | 3900 | 22 | 18 |  |
